{
  "source": "patent US4520134A",
  "about": "“N-alkyl-4'-hydroxyacetanilides, pharmaceutical compositions comprising them and their use” (priority 1984, dated 1985)",
  "key": {"[1]": {"assay": "hot plate test (Ankier), time to lick a back paw", "assay_type": "in vivo, mice", "settings": "30 mg/kg i.p.; for average time before licking a back paw: 10 minutes after dose, plate 54° C., untreated control 44 seconds", "method": "Two groups of mice, six mice per group, were used in the hot plate test described by S. I. Ankier European Journal of Pharmacology 27:1-4 (1974). The control group, which was untreated, at a plate temperature of 54° C. took an average of 44 seconds to lick a back paw. The test group received a dose of N-ethyl-4'-hydroxyacetanilide (30 mg/kg) administered intraperitoneally, and when placed on the hot plate at 54° C. 10 minutes later, shown an average time of 64 seconds before licking a back paw. The analgesic activity of this compound thus increased the pain-response time by almost 50 percent.\nThe analgesic properties of N-isopropylacetaminophen were tested using the hot plate test described by Ankier (Eur. J. Pharmacol. 27: 1-(1974)). Two groups of mice, 6 animals/group were used. The first group was placed on the hot plate, individually, and time need to lick the back paw was recorded and found to be 44 seconds (average) at 54° C. The second group of mice each received 30 mg/kg (i.p.) N-isopropylacetaminophen and after 10 minutes placed on the hot plate at 54° C. The time required to lick the rear paw was measured and found to be 64 seconds (average), thus increased response time by 50%."}, "[2]": {"settings": "1894 paper; cited from earlier work"}, "[3]": {"settings": "1894 paper, without supporting data; cited from earlier work"}, "[4]": {"assay": "enhancement of acetaminophen hepatotoxicity (applicant's finding)", "settings": "in vivo"}, "[5]": {"settings": "administered up to one hour after acute toxic amounts of acetaminophen; cited from earlier work"}, "[6]": {"settings": "mouse, in vivo; cited from earlier work"}, "[7]": {"settings": "mouse, in vivo"}, "[8]": {"settings": "mouse, in vivo, cited from earlier work"}, "[9]": {"settings": "therapeutically recommended doses for extended periods of time; cited from earlier work"}, "[10]": {"settings": "administered within 16 hours after an overdose; cited from earlier work"}, "[11]": {"settings": "cited from earlier work; for protection against acetaminophen toxicity: free radical scavengers; for effect on acetaminophen hepatotoxicity: Kelleher et al.; for protective effect against paracetamol: 300 mg/kg, 450 mg/kg paracetamol orally"}, "[12]": {"settings": "vitamin E deficient rats; cited from earlier work"}, "[13]": {"test_system": "cytochrome P-450", "settings": "cited from earlier work"}, "[14]": {"assay": "toxicity of N-isopropylacetaminophen, histopathology of liver, kidney and lung", "assay_type": "in vivo, mice", "settings": "100-400 mg/kg i.p.; 24 hours", "method": "(§1) The toxicity of N-isopropylacetaminophen was evaluated by injecting mice with this compound at various doss from 100-400 mg/kg, i.p.) and 24 hours later, the animals were sacrificed and histopathology was determined for the liver, kidney and lung."}, "[15]": {"assay": "CNS sedation by N-isopropylacetaminophen", "assay_type": "in vivo, mice", "method": "as §1\nThe higher the dose, the longer the sedation. This was also found to be the case when mice were given the drug orally, except the dose needed to give the same sedative activity was higher (400-600 mg/kg, oral). This sedative effect of the drug lasted from 30 min. at 250 mg/kg to approximately 1.5 hr at 400 mg/kg. At the higher dose, the mice went to sleep."}, "[16]": {"settings": "chronic use; cited from earlier work"}, "[17]": {"settings": "man; cited from earlier work"}, "[18]": {"settings": "500 mg/kg i.p. in propylene glycol"}},
  "note": "Read-outs that look alike come from different tables or passages of the source.",
  "data": [
    {"compound": "CCN(C(C)=O)c1ccc(O)cc1", "note": "[N-ethyl-4'-hydroxyacetanilide]", "values": [
      {"measurement": "average time before licking a back paw", "setting": "[1]", "result": 64, "unit": "s"},
      {"measurement": "increase in pain-response time", "setting": "[1]; vs untreated control, 54° C.", "result": "~50", "unit": "%"},
      {"measurement": "duration of sedative effects", "setting": "[18]", "result": "about one-half"},
      {"measurement": "sedative effects", "setting": "[18]", "result": "sedative effects"},
      {"measurement": "time to ataxia of the hind legs", "setting": "[18]", "result": "about 15 minutes"},
      {"measurement": "time to drowsiness", "setting": "[18]", "result": "about 25 minutes"},
      {"measurement": "duration of sleep", "setting": "600 mg/kg oral, aqueous vehicle, pH 12", "result": "25 to 40", "unit": "min"},
      {"measurement": "antipyretic activity", "setting": "[2]", "result": "no antipyretic activity"},
      {"measurement": "analgesic properties", "setting": "[3]", "result": "no analgesic properties"}
    ]},
    {"compound": "COc1ccc(O)c(C(C)(C)C)c1", "note": "[BHA, butylated hydroxyanisole]", "values": [
      {"measurement": "effect on acetaminophen hepatotoxicity", "setting": "[4]", "result": "profoundly enhance its hepatotoxicity"}
    ]},
    {"compound": "C[S+](C)[O-]", "note": "[DMSO, Dimethyl sulfoxide]", "values": [
      {"measurement": "protection against hepatotoxic effects of acetaminophen", "setting": "[5]", "result": "protect mice against the hepatotoxic effects of acetaminophen"},
      {"measurement": "protection against CCl4 hepatotoxicity", "setting": "[6]", "result": "inability of DMSO to protect mice against CCl4 hepatotoxicity"}
    ]},
    {"compound": "CC(=O)Nc1ccc(O)cc1", "note": "[acetaminophen]", "values": [
      {"measurement": "fraction of the liver necrotic (estimated)", "setting": "[7]", "result": "~60", "unit": "%"},
      {"measurement": "liver histopathology", "setting": "[7]", "result": "severe hepatic necrosis"},
      {"measurement": "immediate symptomatic effects", "setting": "mouse, in vivo", "result": "No immediate symptomatic effects"},
      {"measurement": "oral LD50", "setting": "[8]; po", "result": "about 400 mg/kg"},
      {"measurement": "hepatotoxicity at the oral LD50 dose", "setting": "[8]", "result": "severe hepatotoxicity"},
      {"measurement": "hepatotoxicity on chronic ingestion", "setting": "[9]", "result": "massive hepatic necrosis"}
    ]},
    {"compound": "CC(=O)N[C@@H](CS)C(=O)O", "note": "[N-acetylcysteine]", "values": [
      {"measurement": "prevention of hepatotoxicity", "setting": "[10]", "result": "effective in preventing hepatotoxicity"}
    ]},
    {"compound": "CC(CN1c2ccccc2Sc2ccccc21)N(C)C", "note": "(centres unmarked) [promethazine]", "values": [
      {"measurement": "protection against acetaminophen toxicity", "setting": "[11]", "result": "afford protection against acetaminophen toxicity"}
    ]},
    {"compound": "CSCC[C@H](N)C(=O)O", "note": "[methionine]", "values": [
      {"measurement": "protection against acetaminophen hepatotoxicity", "setting": "[11]; man and experimental animals", "result": "varying degrees of protection"}
    ]},
    {"compound": "NCCS", "note": "[cysteamine]", "values": [
      {"measurement": "protection against acetaminophen hepatotoxicity", "setting": "[11]; man and experimental animals", "result": "varying degrees of protection"}
    ]},
    {"compound": "N[C@@H](CS)C(=O)O", "note": "[cysteine]", "values": [
      {"measurement": "protection against acetaminophen hepatotoxicity", "setting": "[11]; man and experimental animals", "result": "varying degrees of protection"}
    ]},
    {"compound": "Cc1c(C)c2c(c(C)c1O)CCC(C)(CCCC(C)CCCC(C)CCCC(C)C)O2", "note": "(stereo not drawn) [vitamin E, α-tocopherol]", "values": [
      {"measurement": "effect on acetaminophen hepatotoxicity", "setting": "[11]", "result": "reduce heptatotoxicity"},
      {"measurement": "protection against acetaminophen hepatotoxicity", "setting": "[11]; man and experimental animals", "result": "varying degrees of protection"},
      {"measurement": "protection against acetaminophen hepatotoxicity", "setting": "[12]", "result": "protects vitamin E deficient rats"}
    ]},
    {"compound": "CCC1(c2ccccc2)C(=O)NC(=O)NC1=O", "note": "[phenobarbital]", "values": [
      {"measurement": "induction of cytochrome P-450", "setting": "[13]", "result": "well-known cytochrome P-450 inducer"}
    ]},
    {"compound": "N[C@@H](CCC(=O)N[C@@H](CS)C(=O)NCC(=O)O)C(=O)O", "note": "[glutathione]", "values": [
      {"measurement": "protection against acetaminophen toxicity", "setting": "[11]", "result": "afford protection against acetaminophen toxicity"}
    ]},
    {"compound": "CCCOC(=O)c1cc(O)c(O)c(O)c1", "note": "[propyl gallate]", "values": [
      {"measurement": "effect on acetaminophen hepatotoxicity", "setting": "[11]", "result": "reduce heptatotoxicity"}
    ]},
    {"compound": "CC(=O)N(c1ccc(O)cc1)C(C)C", "note": "[N-isopropylacetaminophen, N-isopropyl-4'-hydroxyacetanilide]", "values": [
      {"measurement": "average time before licking a back paw", "setting": "[1]", "result": 64, "unit": "s"},
      {"measurement": "increase in response time", "setting": "[1]; vs untreated control, 54° C.", "result": 50, "unit": "%"},
      {"measurement": "histopathology of liver, kidney and lung", "setting": "[14]", "result": "no organ showed any signs of injury"},
      {"measurement": "duration of sedative effect", "setting": "[15]; 250 mg/kg", "result": 30, "unit": "min"},
      {"measurement": "duration of sedative effect", "setting": "[15]; 400 mg/kg", "result": "approximately 1.5 hr"},
      {"measurement": "CNS sedation", "setting": "[15]; 250-400 mg/kg i.p.", "result": "significant CNS sedation"},
      {"measurement": "additional CNS effects after recovery from sedation", "setting": "[15]; after recovery", "result": "no additional CNS effects were observed"},
      {"measurement": "sleep", "setting": "[15]; higher dose", "result": "went to sleep"},
      {"measurement": "dose giving significant CNS sedation in all mice", "setting": "[15]; i.p.", "result": "250 to 400", "unit": "mg/kg"},
      {"measurement": "dose needed to give the same sedative activity", "setting": "[15]; oral", "result": "400 to 600", "unit": "mg/kg"}
    ]},
    {"compound": "CC1NC(C(=O)O)CS1", "note": "(centres unmarked) [2-methylthiazolidine-4-carboxylic acid]", "values": [
      {"measurement": "protection against hepatotoxins", "setting": "[11]; forms cysteine in the liver", "result": "can also protect against heptotoxins"}
    ]},
    {"compound": "Cc1cc(C(C)(C)C)c(O)c(C(C)(C)C)c1", "note": "[BHT, butylated hydroxytoluene]", "values": [
      {"measurement": "effect on acetaminophen hepatotoxicity", "setting": "[4]", "result": "profoundly enhance its hepatotoxicity"}
    ]},
    {"compound": "CN(C)CCO", "note": "[β-dimethylaminoethanol]", "values": [
      {"measurement": "protection against acetaminophen toxicity", "setting": "[11]", "result": "afford protection against acetaminophen toxicity"}
    ]},
    {"compound": "CCO", "note": "[ethanol]", "values": [
      {"measurement": "induction of cytochrome P-450", "setting": "[13]", "result": "demonstrated to induce cytochrome P-450"},
      {"measurement": "effect on acetaminophen-mediated hepatotoxicity", "setting": "[16]", "result": "markedly increased"}
    ]},
    {"compound": "selenium", "values": [
      {"measurement": "protection against acetaminophen hepatotoxicity", "setting": "[11]; man and experimental animals", "result": "varying degrees of protection"}
    ]},
    {"compound": "O=C1O[C@H]([C@@H](O)CO)C(O)=C1O", "note": "[ascorbic acid]", "values": [
      {"measurement": "protective effect against paracetamol", "setting": "[11]; nonsustained release form", "result": "no protective effect"},
      {"measurement": "protective effect against paracetamol", "setting": "[11]; sustained release form", "result": "substantial protective effect"},
      {"measurement": "protection against acetaminophen hepatotoxicity", "setting": "[11]; animal studies", "result": "may also provide such protection"},
      {"measurement": "apparent half-life of acetaminophen", "setting": "[17]", "result": "did not affect the apparent half-life"},
      {"measurement": "excretion rate of acetaminophen sulfate", "setting": "[17]", "result": "rapid and pronounced decrease"}
    ]}
  ]
}
